According to patent publication US9951064B2, “Azaindazole compounds as inhibitors of T790M containing EGFR mutants” (Genentech, Inc., priority 2013, dated 2018):

Columns and labels:
EGFR T790M L858R = biological target: T1, EGFR T790M L858R (Homo sapiens, UniProt P00533, L858R/T790M); test: EGFR T790M L858R biochemical assay (Caliper mobility shift); details: 5 μM ATP; apparent Ki (Morrison fit) converted by Cheng-Prusoff, Km of ATP 1.3 μM
T1 construct: purchased Life Technologies PV4879
Outline: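 Caliper mobility-shift read-out, electrophoretic separation of substrate from product, after a 30-minute kinase reaction at 22 °C. EDTA at 80 mM terminates each reaction.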

EGFR del746-750 T790M = biological target: T2, EGFR del746-750 T790M (Homo sapiens, UniProt P00533, DEL746-750/T790M); test: EGFR del746-750 T790M biochemical assay (Caliper mobility shift); details: 5 μM ATP; apparent Ki (Morrison fit) converted by Cheng-Prusoff, Km of ATP 2.1 μM; read-out: EGFR(T790M/d746-750) Ki
T2 construct: purchased Carna Biosciences 08-528
Outline: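 Caliper mobility-shift read-out, with product electrophoretically resolved from substrate and measured. Reactions were quenched with 80 mM EDTA after 30 min at 22 °C.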

[1] = biological target: T3, phosphor-EGFR in H1975(L585R/T790M) mutant EGFR expressing cells (Homo sapiens, UniProt P00533, L858R/T790M); test: H1975 pEGFR MSD cellular assay; format: cell-based; details: NCI-H1975 cells, serum starved, 1 hour compound incubation, pEGFR Tyr1068 MSD; read-out: HI975 pEGFR EC50
T3 construct: host or cells: NCI-H1975
Outline: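 Phospho-EGFR read by MSD electrochemiluminescence: capture with anti-pEGFR antibody (overnight, 4° C), detection with SULFO-TAG anti-total EGFR (1 hour, room temperature). Before lysis, H1975 cells starved of serum overnight got compound for 1 hour at 37° C, 0.5% DMSO final. EC50 via four-parameter logistic regression of percent inhibition.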

[2] = tested on: H1975 (EGFR T790M/L858R) cell proliferation; test: H1975 proliferation assay (Cell Titer-Glo); format: cell-based; details: Homo sapiens, NCI-H1975, 72 h, NCI-H1975 cells, 72 hour incubation, read-out: H1975 antiproliferative EC50
Protocol: H1975 Proliferation Assays
All cell culture reagents were purchased from Invitrogen/Gibco. Cells are cultured at 37° C. at 5% CO2 and split as recommended by ATCC.

T3 sequence (P00533 25-1210 T790M/L858R): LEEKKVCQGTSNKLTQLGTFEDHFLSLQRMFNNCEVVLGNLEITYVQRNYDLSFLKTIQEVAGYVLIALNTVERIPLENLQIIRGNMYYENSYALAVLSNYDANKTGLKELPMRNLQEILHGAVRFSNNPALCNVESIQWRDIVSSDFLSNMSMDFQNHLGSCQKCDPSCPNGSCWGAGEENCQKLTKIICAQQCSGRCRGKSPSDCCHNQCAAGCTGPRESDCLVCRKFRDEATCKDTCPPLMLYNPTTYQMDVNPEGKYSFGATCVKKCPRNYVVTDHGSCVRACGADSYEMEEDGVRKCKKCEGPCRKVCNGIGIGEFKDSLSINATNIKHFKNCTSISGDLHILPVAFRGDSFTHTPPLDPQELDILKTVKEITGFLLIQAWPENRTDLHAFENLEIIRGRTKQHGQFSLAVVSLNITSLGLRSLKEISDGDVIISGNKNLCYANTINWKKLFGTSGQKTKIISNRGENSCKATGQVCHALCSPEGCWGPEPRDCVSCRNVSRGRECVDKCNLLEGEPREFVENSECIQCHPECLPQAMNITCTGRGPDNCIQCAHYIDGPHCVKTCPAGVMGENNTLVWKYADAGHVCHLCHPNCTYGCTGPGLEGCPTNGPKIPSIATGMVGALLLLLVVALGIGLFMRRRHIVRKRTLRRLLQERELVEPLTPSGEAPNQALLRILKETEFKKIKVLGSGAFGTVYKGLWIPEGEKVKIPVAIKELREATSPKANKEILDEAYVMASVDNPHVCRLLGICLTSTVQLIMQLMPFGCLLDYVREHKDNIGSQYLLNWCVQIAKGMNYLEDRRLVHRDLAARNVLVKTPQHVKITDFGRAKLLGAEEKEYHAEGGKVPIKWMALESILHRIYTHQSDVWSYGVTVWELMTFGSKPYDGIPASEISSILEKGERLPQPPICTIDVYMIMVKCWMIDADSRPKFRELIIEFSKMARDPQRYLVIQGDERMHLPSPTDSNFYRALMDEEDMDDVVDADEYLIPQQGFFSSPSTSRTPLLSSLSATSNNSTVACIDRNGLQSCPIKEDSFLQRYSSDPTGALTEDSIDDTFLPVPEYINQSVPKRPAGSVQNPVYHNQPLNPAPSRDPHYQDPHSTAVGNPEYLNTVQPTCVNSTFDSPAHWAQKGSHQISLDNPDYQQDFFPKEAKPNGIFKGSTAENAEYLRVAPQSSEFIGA
T1 sequence (P00533 25-1210 T790M/L858R): as above
T2 sequence (P00533 with tags, fused parts or gaps DEL746-750/T790M limits assumed): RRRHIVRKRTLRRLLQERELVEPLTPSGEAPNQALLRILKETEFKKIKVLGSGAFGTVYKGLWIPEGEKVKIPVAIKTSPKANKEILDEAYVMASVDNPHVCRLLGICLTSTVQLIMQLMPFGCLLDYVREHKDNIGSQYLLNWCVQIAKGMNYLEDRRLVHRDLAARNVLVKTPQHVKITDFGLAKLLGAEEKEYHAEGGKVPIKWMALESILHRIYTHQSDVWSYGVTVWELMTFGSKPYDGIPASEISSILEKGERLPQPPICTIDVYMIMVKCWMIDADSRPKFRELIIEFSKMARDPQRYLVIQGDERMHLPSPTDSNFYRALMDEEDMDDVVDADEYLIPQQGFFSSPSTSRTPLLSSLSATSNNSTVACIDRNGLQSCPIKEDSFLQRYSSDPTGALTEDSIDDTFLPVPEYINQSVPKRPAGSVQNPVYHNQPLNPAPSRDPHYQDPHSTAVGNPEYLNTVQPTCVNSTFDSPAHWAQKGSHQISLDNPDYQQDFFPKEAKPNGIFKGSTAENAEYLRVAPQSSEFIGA

Row | Compound | Ki (EGFR T790M L858R) [nM] | Ki (EGFR del746-750 T790M) [nM] | EC50 [1] [nM] | EC50 [2] [nM]
1 | CCC(C)n1nc(N2CC(F)(F)C2)c2cnc(Nc3ccnc(N4CCC(C)(O)CC4)n3)cc21 (stereo not shown) [Example 146, 1-(4-(1-sec-Butyl-3-(3,3-difluoroazetidin-1-yl)-1H-pyrazolo[4,3-c]pyridin-6-ylamino)pyrimidin-2-yl)-4-methylpiperidin-4-ol] | 2.5 | 4.9 | 277 | 1600
2 | CC(C)n1nc(N2CC(C(C)(C)O)C2)c2cnc(Nc3ccnc(-c4cnn(S(=O)(=O)C5CC5)c4)n3)cc21 [Example 149, 2-(1-(6-(2-(1-(Cyclopropylsulfonyl)-1H-pyrazol-4-yl)pyrimidin-4-ylamino)-1-isopropyl-1H-pyrazolo[4,3-c]pyridin-3-yl)azetidin-3-yl)propan-2-ol] | 2.1 | 1.2 | 51.9 | 423
3 | CC(C)n1nc(N2CCCNC2=O)c2cnc(Nc3ccnc(-c4cnn(S(=O)(=O)C5CC5)c4)n3)cc21 [Example 150, 3-(6-(2-(1-(Cyclopropylsulfonyl)-1H-pyrazol-4-yl)pyrimidin-4-ylamino)-1-isopropyl-1H-pyrazolo[4,3-c]pyridin-3-yl)-tetrahydropyrimidin-2(1H)-one] | 4.9 | 3.6 | 244 | 765
4 | CCN1CCN(c2nn(C(C)C)c3cc(Nc4ccnc(-c5cnn(S(=O)(=O)C6CC6)c5)n4)ncc23)C1=O [Example 151, 1-(6-(2-(1-(Cyclopropylsulfonyl)-1H-pyrazol-4-yl)pyrimidin-4-ylamino)-1-isopropyl-1H-pyrazolo[4,3-c]pyridin-3-yl)-3-ethylimidazolidin-2-one] | 8.7 | 6.3 | 363 | 929
5 | CC(C)n1nc(N2CC(C(C)(C)C#N)C2)c2cnc(Nc3ccnc(-c4cnn(S(=O)(=O)C5CC5)c4)n3)cc21 [Example 153, 2-(1-(6-(2-(1-(Cyclopropylsulfonyl)-1H-pyrazol-4-yl)pyrimidin-4-ylamino)-1-isopropyl-1H-pyrazolo[4,3-c]pyridin-3-yl)azetidin-3-yl)-2-methylpropanenitrile] | 2.1 | 1.9 | 133 | 1380
6 | CC(C)n1nc(N2CC(F)(F)C2)c2cnc(Nc3ccnc(-c4cnn(S(=O)(=O)C5CC5)c4)n3)cc21 [Example 154, N-(2-(1-(Cyclopropylsulfonyl)-1H-pyrazol-4-yl)pyrimidin-4-yl)-3-(3,3-difluoroazetidin-1-yl)-1-isopropyl-1H-pyrazolo[4,3-c]pyridin-6-amine] | 2.8 | 2.9 | 82 | 312
7 | CC(C)n1nc(N2CC(C#N)C2)c2cnc(Nc3ccnc(-c4cnn(S(=O)(=O)C5CC5)c4)n3)cc21 [Example 155, 1-(6-(2-(1-(Cyclopropylsulfonyl)-1H-pyrazol-4-yl)pyrimidin-4-ylamino)-1-isopropyl-1H-pyrazolo[4,3-c]pyridin-3-yl)azetidine-3-carbonitrile] | 1 | 0.9 | 28.9 | 144
8 | CC(C)n1nc(N2CCC(C(=O)N(C)C)C2)c2cnc(Nc3ccnc(-c4cnn(S(=O)(=O)C5CC5)c4)n3)cc21 (stereo not shown) [Example 156, 1-(6-(2-(1-(Cyclopropylsulfonyl)-1H-pyrazol-4-yl)pyrimidin-4-ylamino)-1-isopropyl-1H-pyrazolo[4,3-c]pyridin-3-yl)N,N-dimethylpyrrolidine-3-carboxamide] | 1.1 | 0.8 | 39.2 | 163
9 | CC(C)n1nc(N2CCC(C)(C(N)=O)C2)c2cnc(Nc3ccnc(N4CCC(C)(O)CC4)n3)cc21 (stereo not shown) [Example 157, 1-(6-(2-(4-Hydroxy-4-methylpiperidin-1-yl)pyrimidin-4-ylamino)-1-isopropyl-1H-pyrazolo[4,3-c]pyridin-3-yl)-3-methylpyrrolidine-3-carboxamide] | 2.6 | 4.9 | 1330 | 2860
10 | CC(C)n1nc(N2CC[C@@H](N)C2=O)c2cnc(Nc3ccnc(N4CCC(C)(O)CC4)n3)cc21 [Example 158, (R)-3-Amino-1-(6-(2-(4-hydroxy-4-methylpiperidin-1-yl)pyrimidin-4-ylamino)-1-isopropyl-1H-pyrazolo[4,3-c]pyridin-3-yl)pyrrolidin-2-one] | 18.5 | 50.9 | 1300 | 8120
11 | CC(C)n1nc(N2CC[C@H](N)C2=O)c2cnc(Nc3ccnc(N4CCC(C)(O)CC4)n3)cc21 [Example 159, (S)-3-Amino-1-(6-(2-(4-hydroxy-4-methylpiperidin-1-yl)pyrimidin-4-ylamino)-1-isopropyl-1H-pyrazolo[4,3-c]pyridin-3-yl)pyrrolidin-2-one] | 11.6 | 28.5 | 1100 | 9730
12 | CC(C)n1nc(N2CC3(C2)CS(=O)(=O)C3)c2cnc(Nc3ccnc(N4CCC(C)(O)CC4)n3)cc21 [Example 160, 6-(6-((2-(4-Hydroxy-4-methylpiperidin-1-yl)pyrimidin-4-yl)amino)-1-isopropyl-1H-pyrazolo[4,3-c]pyridin-3-yl)-2-thia-6-azaspiro[3.3]heptane 2,2-dioxide] | 5.1 | 9.7 | 962 | 3090
13 | CNC(=O)C1CN(c2nn(C(C)C)c3cc(Nc4ccnc(-c5cnn(S(=O)(=O)C6CC6)c5)n4)ncc23)C1 [Example 161, 1-(6-(2-(1-(Cyclopropylsulfonyl)-1H-pyrazol-4-yl)pyrimidin-4-ylamino)-1-isopropyl-1H-pyrazolo[4,3-c]pyridin-3-yl)-N-methylazetidine-3-carboxamide] | 0.7 | 0.6 | 54.3 | 650
14 | CCNC(=O)C1CN(c2nn(C(C)C)c3cc(Nc4ccnc(-c5cnn(S(=O)(=O)C6CC6)c5)n4)ncc23)C1 [Example 162, 1-(6-(2-(1-(Cyclopropylsulfonyl)-1H-pyrazol-4-yl)pyrimidin-4-ylamino)-1-isopropyl-1H-pyrazolo[4,3-c]pyridin-3-yl)-N-ethylazetidine-3-carboxamide] | 1 | 0.8 | 56.6 | 484
15 | CC(C)n1nc(N2CC(C(=O)N3CCOCC3)C2)c2cnc(Nc3ccnc(-c4cnn(S(=O)(=O)C5CC5)c4)n3)cc21 [Example 163, (1-(6-(2-(1-(Cyclopropylsulfonyl)-1H-pyrazol-4-yl)pyrimidin-4-ylamino)-1-isopropyl-1H-pyrazolo[4,3-c]pyridin-3-yl)azetidin-3-yl)(morpholino)methanone] | 0.9 | 0.9 | 26.5 | 344
16 | CC(C)n1nc(N2CC(C(=O)N3CC[C@@H](O)C3)C2)c2cnc(Nc3ccnc(-c4cnn(S(=O)(=O)C5CC5)c4)n3)cc21 [Example 164, (R)-(1-(6-(2-(1-(Cyclopropylsulfonyl)-1H-pyrazol-4-yl)pyrimidin-4-ylamino)-1-isopropyl-1H-pyrazolo[4,3-c]pyridin-3-yl)azetidin-3-yl)(3-hydroxypyrrolidin-1-yl)methanone] | 1.2 | 1.1 | 430 | 2520
